# Experimental data from US9328095B2, “Heteroaryl linked quinolinyl modulators of RORgammat” (Janssen Pharmaceutica NV, priority 2013, dated 2016).
# Columns and labels:
# [1] = molecular target: T1, wild type human RORγt LBD fused to the DNA binding domain of the GAL4 protein (Homo sapiens, UniProt P51449); experiment: RORγt reporter assay; format: cell-based; settings: HEK293T cells
# T1 construct: expressed in transfected cells; host or cells: HEK293T
# T1 sequence (P51449 258-518): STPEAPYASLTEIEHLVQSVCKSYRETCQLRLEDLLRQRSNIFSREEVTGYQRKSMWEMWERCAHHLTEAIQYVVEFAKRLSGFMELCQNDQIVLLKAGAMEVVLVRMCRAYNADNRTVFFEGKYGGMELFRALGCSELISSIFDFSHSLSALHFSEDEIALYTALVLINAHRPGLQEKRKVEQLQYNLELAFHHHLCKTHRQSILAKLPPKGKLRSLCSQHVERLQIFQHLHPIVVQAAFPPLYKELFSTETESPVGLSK
# Description: A reporter assay was used to test functional activity of RORγt modulatory compounds on transcriptional activation driven by the RORγt LBD. Cells used in the assay were co-transfected with two constructs. The first construct, pBIND-RORγt LBD, contained the wild type human RORγt LBD fused to the DNA binding domain of the GAL4 protein. The second construct, pGL4.31 (Promega Cat no. C935A), contained multiple GAL4 responsive DNA elements upstream of firefly luciferase. […] The mutant construct was called pBIND-RORγt-AF2.
# The pBIND vector contains the GAL4 DNA Binding Domain (GAL4 DBD) and the renilla luciferase gene under control of the SV40 promoter. […]
# The reporter assay was performed by transiently transfecting HEK293T cells with 5 μg of pBIND-RORγt LBD or pBIND-RORγt LBD-AF2 and 5 μg pGL4.31 (Promega Cat no. C935A) using Fugene 6 (Invitrogen Cat no. E2691) at a 1:6 ratio of DNA: Fugene 6 in a T-75 flask in which cells were at least 80% confluent. […] Dual Glo Luciferase Reagent (50 μL/well) was then added and firefly luciferase luminescence was read on an Envision after a ten minute incubation. Finally, Stop and Glo reagent (50 μL/well) was added and renilla luciferase luminescence was read on an Envision after a ten minute incubation. To calculate the effect of compounds on RORγt activity, the ratio of firefly to renilla luciferase was determined and plotted against compound concentration. […]
# [2] = system: IL-17 production by CD4 T cells; experiment: Human Th17 assay; format: cell-based; settings: 3 days
# Description: The human Th17 assay tests the effect of RORγt modulatory compounds on IL-17 production by CD4 T cells under conditions which favor Th17 differentiation.
# Total CD4^+ T cells were isolated from the peripheral blood mononuclear cells (PBMC) of healthy donors using a CD4^+ T cell isolation kit II, following the manufacturer's instructions (Miltenyi Biotec). Cells were resuspended in a medium of RPMI-1640 supplemented with 10% fetal bovine serum, penicillin, streptomycin, glutamate, and β-mercaptoethanol and were added to 96-well plates at 1.5×10^5 per 100 μL per well. 50 μL of compound at titrated concentrations in DMSO were added into each well at final DMSO concentration at 0.2%. Cells were incubated for 1 hour, then 50 μL of Th17 cell differentiation medium was added to each well. The final concentrations of antibodies and cytokines (R&D Systems) in differentiation medium were: 3×10^6/mL anti-CD3/CD28 beads (prepared using human T cell activation/expansion kit, Miltenyi Biotec), 10 μg/mL anti-IL4, 10 μg/mL anti-IFNγ, 10 ng/mL IL1β, 10 ng/mL IL23, 50 ng/mL IL6, 3 ng/mL TGFβ and 20 U/mL IL2. Cells were cultured at 37° C. and 5% CO2 for 3 days. Supernatants were collected and the accumulated IL-17 in culture was measured by using MULTI-SPOT® Cytokine Plate following manufacture's instruction (Meso Scale Discovery). The plate was read using Sector Imager 6000, and IL-17 concentration was extrapolated from the standard curve. The IC50s were determined by GraphPad.
# [3] = molecular target: T2, human RORγt ligand binding domain (RORγt LBD) (Homo sapiens, UniProt P51449); experiment: RORγt ThermoFluor assay
# T2 construct: His-tag (N); TurboTEV protease cleavage site (ENLYFQG) (N); made in house; host or cells: E. coli (pHIS1, modified pET vector)
# T2 sequence (P51449 with tags, fused parts or gaps): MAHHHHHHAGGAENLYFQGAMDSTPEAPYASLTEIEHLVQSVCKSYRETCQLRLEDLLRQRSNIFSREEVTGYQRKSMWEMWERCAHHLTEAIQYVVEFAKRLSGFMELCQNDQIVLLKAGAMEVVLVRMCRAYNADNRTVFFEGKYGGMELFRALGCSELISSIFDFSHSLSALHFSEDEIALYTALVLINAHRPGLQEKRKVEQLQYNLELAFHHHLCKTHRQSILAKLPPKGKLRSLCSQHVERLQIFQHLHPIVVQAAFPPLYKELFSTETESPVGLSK
# Method: This approach is applicable to a wide variety of systems, and rigorous in theoretical interpretation through quantitation of equilibrium binding constants (KD).
# The shift in the melting point described as a ΔTm is proportional to the concentration and affinity of the ligand. The compound potency may be compared as a rank order of either ΔTm values at a single compound concentration or in terms of KD values, estimated from concentration response curves.
# ThermoFluor® experiments were carried out using instruments owned by Janssen Research and Discovery, L.L.C. through its acquisition of 3-Dimensional Pharmaceuticals, Inc. 1,8-ANS (Invitrogen) was used as a fluorescent dye. […]
# Bar-coded assay plates are robotically loaded onto a thermostatically controlled PCR-type thermal block and then heated at a typical ramp-rate of 1° C./min for all experiments. Fluorescence was measured by continuous illumination with UV light (Hamamatsu LC6) supplied via fiber optic and filtered through a band-pass filter (380-400 nm; >6 OD cutoff). Fluorescence emission of the entire 384-well plate was detected by measuring light intensity using a CCD camera (Sensys, Roper Scientific) filtered to detect 500±25 nm, resulting in simultaneous and independent readings of all 384 wells. […]
SMILES,IC50 [2],also measured
"CCN(CC)c1nc2ccc(C(O)(c3ccccn3)c3cncn3C)cc2c(C#N)c1Oc1ccccc1 (single isomer, unassigned) [Example 5c]",–,"inhibition at 6 µM ([1]; HEK-293T, 6 μM): 103%"
"Cn1cncc1C(O)(c1ccc(C(F)(F)F)nc1)c1ccc2nc(N3CCCC3)c(Oc3ccc(C#N)cc3)c(Cl)c2c1 (stereo not drawn) [Example 2a, 4-((4-Chloro-6-(hydroxy(1-methyl-1H-imidazol-5-yl)(6-(trifluoromethyl)pyridin-3-yl)methyl)-2-(pyrrolidin-1-yl)quinolin-3-yl)oxy)benzonitrile]",88 nM,–
Cn1cncc1C(O)(c1ccc(C(F)(F)F)nc1)c1ccc2nc(N3CCCC3)c(Oc3ccc(C#N)cc3)c(Cl)c2c1 (stereo not drawn) [Example 2b],320 nM,–
Cn1cncc1C(O)(c1ccc(C(F)(F)F)nc1)c1ccc2nc(N3CCCC3)c(Oc3ccc(C#N)cc3)c(Cl)c2c1 (stereo not drawn) [Example 2c],100 nM,–
"CC(C)(C)OC(=O)N(c1ccccc1)c1c(Cl)nc2ccc(C(O)(c3cccnc3)c3cccc(Cl)c3)cc2c1Cl (stereo not drawn) [Example 7, tert-Butyl (2,4-dichloro-6-((3-chlorophenyl)(hydroxy)(pyridin-3-yl)methyl)quinolin-3-yl)(phenyl)carbamate]",–,Kd [3]: 23000 nM; IC50 [1]: 1400 nM
